# Results reported in patent US20070048247A1, “Deodorizing tablets” (Kimberly-Clark Worldwide, Inc., priority 2005, published 2007).
# Key:
# [1] = Example 2 urine odor panel ranking (1.6 millimolar); parameters: species or system Human; settings: 1.6 millimolar in urine, after 24 hours
# Excerpt: The powders chosen for this example were powders of Acid Blue 25, Acid Blue 45, Acid Blue 129, FD&C Blue No.1 (a triarylmethane), Acid Green 27, Acid Green 41, and Mordant Violet 5 (Alizarin Violet 3R) (commercially available from Sigma-Aldrich Chemical Co., Inc. of St. Louis, Mo.), as well as D&C Green No. 5 (commercially available from Noveon Hilton Davis, Inc. of Cincinnati, Ohio). Human female urine was initially collected and pooled by a nurse on staff at Kimberly-Clark Corporation. […] Powders of the aforementioned quinone compounds were weighed and placed into the mason jars containing 50 milliliters of urine so that the final concentration of the powder was 1.6 millimolar (equivalent to 0.1 wt. %). […] A score of “10” was assigned to the most malodorous jar and a score of “1” was assigned to the least malodorous jar.
# [2] = Example 3 urine odor panel ranking; parameters: species or system Human
# Procedure: (§1) The effectiveness of various quinone compounds in reducing urine odor was compared. […] Human female urine was initially collected and pooled by a nurse on staff at Kimberly-Clark Corporation. The pooled urine was added to mason jars in 50-milliliter aliquots using an automated pipette aid. […] The mason jars were placed in an incubator overnight at 37° C.
# (§2) In addition to ranking the jars from least to most malodorous (on a scale from 1 to 7, with 7 being the most malodors), panelists were also asked to judge whether there were secondary (non-urine) odors present and, if so, the extent that the secondary odors were unpleasant (on a scale from 1 to 5, with 5 being extremely unpleasant).
# In this assessment, panelists were given instructions to rank the least malodorous jar as “1” and the most malodorous jar as “10,” remaining free to rank the other jars between 2-9.
# [3] = Example 3 secondary (non-urine) odor ranking; parameters: species or system Human; settings: individual panelist scores, scale 1 to 5, 5 extremely unpleasant
# Procedure: as §1, §2
# [4] = Redox potential (redox potentiometry); format: physicochemical
# Excerpt: The ability of quinone compounds to accept electrons from another substance (i.e., be reduced) may be quantified using a technique known as redox potentiometry. Redox potentiometry is a technique that measures (in volts) the affinity of a substance for electrons—its electronegativity—compared with hydrogen (which is set at 0). Substances more strongly electronegative than (i.e., capable of oxidizing) hydrogen have positive redox potentials. Substances less electronegative than (i.e., capable of reducing) hydrogen have negative redox potentials. The greater the difference between the redox potentials of two substances (ΔE), the greater the vigor with which electrons will flow spontaneously from the less positive to the more positive (more electronegative) substance. As is well known in the art, redox potential may be measured using any of a variety of commercially available meters, such as an Oxidation Reduction Potential (ORP) tester commercially available from Hanna Instruments, Inc. of Woonsocket, R. I. The redox potential of the quinone compounds may, for instance, be less than about −50 millivolts (mV), in some embodiments less than about −150 mV, in some embodiments less than about −300 mV, and in some embodiments, less than about −500 mV. Although not always the case, the redox potential may vary based on the number and location of functional groups, such as sulfonic acid, on the quinone structure. For example, 2-sulfonic acid anthraquinone has a redox potential of −380 mV; 2,6-disulfonic acid anthraquinone has a redox potential of −325 mV; and 2,7-disulfonic acid anthraquinone has a redox potential of −313 mV. Likewise, 2-sulfonic acid naphthaquinone has a redox potential of −60 mV. The use of other functional groups may also have an affect on the ultimate redox potential of the compound. For example, Acid Blue 25, which also contains amino- and aramid functional groups, has a redox potential of −605 mV.
# [5] = Example 7 urine odor panel ranking (16 millimolar); parameters: species or system Human; settings: Example 7 Group C; 16 millimolar in urine; 1 least, 10 most urine malodor
# How it was run: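 Quinone powders were added at a final 16 millimolar (1 wt. %) to pooled human female urine, and jars were incubated overnight at 37° C. Jars were compared with an untreated urine control jar. The next day panelists scored malodor from 1 (least) to 10 (most).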
# [6] = Solubility of powder in urine; settings: Example 7; 16 mM in 50 milliliters of urine
# [7] = Example 3 first grouping, 8 millimolar in urine, scale 1 to 7, 7 most malodorous
# [8] = Example 3 top performers of both groupings, after 24 hours, 1 least, 10 most malodorous
structure (smiles),measurement,setting,value
Cc1ccc(Nc2cccc3c2C(=O)c2cccc(Nc4ccc(C)cc4S(=O)(=O)[O-])c2C3=O)c(S(=O)(=O)[O-])c1.[Na+].[Na+],reducing odor (in words),[1],did not perform as well in reducing odor as D&C Green No. 5
same,"Average Urine Odor Ranking, Avg. Score",[2]; [7],5.8
same,Urine Odor Ranking 4 (number of panelists),[2]; [7],1
same,Urine Odor Ranking 6 (number of panelists),[2]; [7],3
same,Urine Odor Ranking 7 (number of panelists),[2]; [7],1
same,Secondary Odor Ranking,[3]; Example 3 first grouping,1
"O=C1c2ccc(S(=O)(=O)O)cc2C(=O)c2cc(S(=O)(=O)O)ccc21 [2,7-disulfonic acid anthraquinone]",redox potential,[4],−313 mV
O=C1c2ccccc2C(=O)c2cc(S(=O)(=O)O)ccc21 [2-sulfonic acid anthraquinone],redox potential,[4],−380 mV
O=C1C=C(S(=O)(=O)O)C(=O)c2ccccc21 [2-sulfonic acid naphthaquinone],redox potential,[4],−60 mV
Nc1c(S(=O)(=O)[O-])cc(Nc2ccccc2)c2c1C(=O)c1ccccc1C2=O.[Na+] [Acid Blue 25],redox potential,[4],−605 mV
same,urine odor reduction (in words),[2]; Example 3 first grouping,functioned effectively to reduce odor
same,"Average Urine Odor Ranking, Avg. Score",[2]; [7],3.0
same,Urine Odor Ranking 1 (number of panelists),[2]; [7],1
same,Urine Odor Ranking 2 (number of panelists),[2]; [7],1
same,Urine Odor Ranking 3 (number of panelists),[2]; [7],1
same,Urine Odor Ranking 4 (number of panelists),[2]; [7],1
same,Urine Odor Ranking 5 (number of panelists),[2]; [7],1
same,Urine Odor Ranking 4 (number of panelists),[2]; [8],1
same,Urine Odor Ranking 7 (number of panelists),[2]; [8],1
same,Urine Odor Ranking 9 (number of panelists),[2]; [8],2
same,Urine Odor Ranking 10 (number of panelists),[2]; [8],1
same,"Average Urine Odor Ranking, Avg. Score","[2]; Example 3 top performers, after 24 hours, 1 least, 10 most malodorous",6.8
same,"Average Urine Odor Ranking (with statistical corrections), Avg. Score","[2]; Example 3 top performers, after 24 hours, ignoring statistical anomalies",8.8
same,Secondary Odor Ranking,[3]; Example 3 first grouping,2
same,Secondary Odor Ranking,"[3]; Example 3 top performers, after 24 hours",4
same,"Average Rankings (Group C), Avg. Score",[5],2.4
same,Urine Odor Ranking 1 (number of panelists),[5],3
same,Urine Odor Ranking 4 (number of panelists),[5],1
same,Urine Odor Ranking 5 (number of panelists),[5],1
same,Soluble?,[6],Mostly
